What was measured:
[1] = test system: human peripheral blood mononuclear cell; experiment: Activation of immune cells, human PBMC cytokine/chemokine production (Test 3); assay type: cell-based; details: 200 nmol/L, one day, PBMCs from two donors, compared with only DMSO
Experimental: Cryopreserved peripheral blood mononuclear cells (PBMCs) of adult (C.T.L) were reconstituted, suspended in a culture medium which comprises AIM V medium (Life Technologies) supplemented with 10% human serum (biowest) and 1% MEM Non-Essential Amino Acids Solution (100×) (Life Technologies), and seeded on a U-bottom 96 well plate at 4×10^5 cells/well. The compound of the present invention was added in the presence of 0.1% (v/v) DMSO to the wells at a final concentration of 200 nmol/L. The plate was incubated at 37° C. under an atmosphere of 5% CO2. One day after the incubation, the culture supernatant was collected. The concentration of cytokine and chemokine (GM-CSF, IFNα2, IFNγ, IL-12p40, IL-1p, IL-6, IP-10, and TNFα) which were included in each culture supernatant was measured with Milliplex Human Cytokine/Chemokine Magnetic Bead Panel kit (Millipore) and Luminex system (Luminex) in accordance with the manufacturer's protocol.
The results of the test wherein PBMCs derived from two different donors were used were shown in FIG. 1-A to FIG. 1-I. The white bar indicates the mean number of the concentration of cytokine and chemokine in the culture supernatant from three wells to which only DMSO was added, and the black bar indicates the mean number of the concentration of cytokine and chemokine in the culture supernatant from three wells to which the present compound was added. […]

[2] = test system: HLA-A*02:01 transgenic mouse; experiment: In vivo adjuvant activity, CTL induction with vaccine a, IFNγ ELISPOT (Test 6); details: for CTL counts responsive to Peptide SEQ ID No. 1 (IFNγ-producing cells) / CTL counts responsive to Peptide SEQ ID No. 5 (IFNγ-producing cells): compound added to vaccine a versus vaccine a, intradermal, Example 3 32.5 ng per body, Reference example 14 17.5 ng per body, one week later
Experimental: The in vivo adjuvant activity of the compound of Example 3 and the compound of Reference example 14 was evaluated in the following procedure. To a cocktail vaccine comprising Compound of formula 4 prepared in Reference example 9 and Peptide SEQ ID No. 3 prepared in Reference example 3 with a preliminarily-emulsified composition (hereinafter, referred to as “vaccine a”) was added the compound prepared in Example 3 or the compound prepared in Reference example 14 respectively to prepare each vaccine. The vaccine was administered to a HLA-A*02:01 transgenic mouse, and the adjuvant activity of each vaccine was evaluated by the method of testing antigen-specific cytotoxic T-lymphocyte (CTL) induction. The RMFPNAPYL (SEQ ID No. 1) in Compound of formula 4 and VLDFAPPGA (SEQ ID No. 5) in Peptide SEQ ID No. 3 correspond to antigen peptides derived from an HLA-A*02:01-restricted WT1 protein.
HLA-A*02:01 transgenic mouse (C57BL/6CrHLA-A2.1DR1) lacks mouse MHC, and instead expresses a chimeric HLA of a human MHC (HLA-A*02:01) and a mouse MHC (H-2D^b), and HLA-DRB1*01:01. The mouse can evaluate the pharmacological activity of immunotherapeutic agents including a peptide which induces CTLs in HLA-A*02:01-positive human (Eur J Immunol. 2004; 34: 3060-9). In addition, the mouse can also evaluate the induction of a helper peptide which can bind to a human HLA-DRB1*01:01 to induce a helper T-cell, and the enhancing effect for inducing CTLs.
The character for inducing CTLs specific to the antigen peptide (SEQ ID No. 1 or SEQ ID No. 5) by vaccine a was evaluated by measuring whether IFNγ can be produced upon stimulation of splenocytes from the mouse with the peptide. In addition, the character for exerting in vivo adjuvant activity by the compound in Example 3 or the compound in Reference example 14 was evaluated by comparing the number of CTLs induced by vaccine a and the number of CTLs induced by the vaccine prepared by adding the compound prepared in Example 3 or the compound in Reference example 14 to vaccine a, and checking presence or absence of the increase on the number.
0.312 g of sodium dihydrogen phosphate dihydrate was dissolved in 80 g of water for injection. 14.0 g of ethyl oleate, 14.0 g of octyldodecyl myristate, 2.0 g of sorbitan monooleate, 2.8 g of glyceryl monooleate, 0.4 g of polyoxyethylene hydrogenated castor oil 20, and 0.4 g of glycerin were mixed. 2.354 mL of the mixture (corresponding to 2.077 g) was put into a test tube, and 0.396 mL of the aqueous sodium dihydrogen phosphate (corresponding to 0.396 g) was gradually added into the test tube which was being stirred with a mixer (ULTRA-TURRAX T10, IKA, or Touch Mixer MT-51, Yamato Scientific) to emulsify the mixture in the test tube. The obtained emulsion was referred to as preliminary emulsified composition. The amount of the preparation was adjusted as appropriate.
Compound of formula 4 and Peptide SEQ ID No. 3 were dissolved in DMSO, and then diluted with water for injection to concentrations of Compound of formula 4 of 3 mg/ml and Peptide of SEQ ID No. 3 of 2.25 mg/ml. The diluted peptide solution was mixed and emulsified with an equal volume of the above preliminary emulsified composition to prepare vaccine a. Vaccine a was injected to mice intradermally at the tail base area in an amount for administering 300 μg of Compound of formula 4 per body and 225 μg of Peptide SEQ ID No. 3 per body. Or, in the step of preparing vaccine a, the compound prepared in Example 3 was added to the diluted peptide solution to prepare a vaccine, and the prepared vaccine was injected to mice intradermally at the tail base area in an amount for administering 300 μg of Compound of formula 4 per body, 225 μg of Peptide SEQ ID No. 3 per body, and 32.5 ng of the compound prepared in Example 3 per body. […]

[3] = Example 3 32.5 ng per body versus Reference example 14 17.5 ng per body, added to vaccine

| Structure (SMILES) | concentration of cytokine and chemokine (GM-CSF, IFNα2, IFNγ, IL-12p40, IL-1β, IL-6, IP-10, TNFα) in culture supernatant [1] | increase of the CTL counts (Peptide SEQ ID No. 1) compared with Reference example 14 [2, 3] | increase of the CTL counts (Peptide SEQ ID No. 5) compared with Reference example 14 [2, 3] | CTL counts responsive to Peptide SEQ ID No. 1 (IFNγ-producing cells) [2] | CTL counts responsive to Peptide SEQ ID No. 5 (IFNγ-producing cells) [2] |
| --- | --- | --- | --- | --- | --- |
| CCCCOc1nc(N)c2[nH]c(=O)n(Cc3ccc(CN(C)CCOCCOCCOCCOCCO)nc3)c2n1 [Example 2, 6-amino-2-butoxy-9-{[6-(16-hydroxy-2-methyl-5,8,11,14-tetraoxa-2-azahexadecan-1-yl)pyridin-3-yl]methyl}-7,9-dihydro-8H-purin-8-one-trifluoroacetate] | higher | – | – | – | – |
| CCCCOc1nc(N)c2[nH]c(=O)n(Cc3ccc(CN(C)CCOCCOCCOCCOCCO)cc3)c2n1 [Example 3, 6-amino-2-butoxy-9-{[4-(16-hydroxy-2-methyl-5,8,11,14-tetraoxa-2-azahexadecan-1-yl)phenyl]methyl}-7,9-dihydro-8H-purin-8-one] | higher | more | more | increased | increased |
| CCCCOc1nc(N)c2[nH]c(=O)n(Cc3ccc(CNC)cc3)c2n1 [Reference example 14, reference compound] | – | – | – | increased | increased |

— patent publication US20220241409A1, “WATER SOLUBLE ADJUVANT AND COMPOSITION CONTAINING SAME” (Sumitomo Dainippon Pharma Co., Ltd., priority 2019, published 2022)
